{"source": "the supplement of paper PMC10307832", "experiment_in_all_cases": "relative viability (nuclei count vs DMSO), 5 days (fraction); higher = more cells survive", "key": {"NCI-H1944": {"tested_on": "NCI-H1944", "procedure,_shortened": "(§1)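 Values are medians from duplicate plates. Each reflects relative viability, defined as the nuclei count of treated wells over that of vehicle wells. Lung cancer cell lines in 1536-well plates were pin-tool dosed one day after seeding with one drug alone or with a fixed anchor-drug dose plus five library-drug doses (not always all listed) in √10 steps, then fixed, stained and imaged at 4× after 5 days.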"}, "BEN": {"tested_on": "BEN", "procedure,_shortened": "as §1"}, "LCLC-97TM1": {"tested_on": "LCLC-97TM1", "procedure,_shortened": "as §1"}, "PC-3 [JPC-3]": {"tested_on": "PC-3 [JPC-3]", "procedure,_shortened": "as §1"}, "LC-2-ad": {"tested_on": "LC-2-ad", "procedure,_shortened": "as §1"}, "HCC-15": {"tested_on": "HCC-15", "procedure,_shortened": "as §1"}, "HCC-366": {"tested_on": "HCC-366", "procedure,_shortened": "as §1"}, "EKVX": {"tested_on": "EKVX", "procedure,_shortened": "as §1"}, "HCC-827": {"tested_on": "HCC-827", "procedure,_shortened": "as §1"}, "NCI-H1755": {"tested_on": "NCI-H1755", "procedure,_shortened": "as §1"}, "NCI-H3122": {"tested_on": "NCI-H3122", "procedure,_shortened": "as §1"}, "NCI-H1993": {"tested_on": "NCI-H1993", "procedure,_shortened": "as §1"}, "NCI-H2342": {"tested_on": "NCI-H2342", "procedure,_shortened": "as §1"}, "NCI-H596": {"tested_on": "NCI-H596", "procedure,_shortened": "as §1"}, "LU99A": {"tested_on": "LU99A", "procedure,_shortened": "as §1"}, "NCI-H1915": {"tested_on": "NCI-H1915", "procedure,_shortened": "as §1"}, "RERF-LC-KJ": {"tested_on": "RERF-LC-KJ", "procedure,_shortened": "as §1"}, "NCI-H522": {"tested_on": "NCI-H522", "procedure,_shortened": "as §1"}}, "data": [{"compound": "COCC1(CO)C(=O)C2CCN1CC2", "note": "(stereo unspecified) [PRIMA-1MET] + NC(=O)Nc1cc(-c2cccc(F)c2)sc1C(=O)N[C@H]1CCCNC1 [AZD7762] (partner 0.2 µM)", "values": [{"measurement": "relative viability", "setting": "NCI-H1944; first compound 0.2 µM", "result": 0.661}, {"measurement": "relative viability", "setting": "NCI-H1944; first compound 0.6325 µM", "result": 0.43}, {"measurement": "relative viability", "setting": "NCI-H1944; first compound 2 µM", "result": 0.381}, {"measurement": "relative viability", "setting": "NCI-H1944; first compound 6.325 µM", "result": 0.533}, {"measurement": "relative viability", "setting": "NCI-H1944; first compound 20 µM", "result": 0.511}, {"measurement": "relative viability", "setting": "BEN; first compound 0.2 µM", "result": 0.733}, {"measurement": "relative viability", "setting": "BEN; first compound 0.6325 µM", "result": 0.603}, {"measurement": "relative viability", "setting": "BEN; first compound 6.325 µM", "result": 0.653}, {"measurement": "relative viability", "setting": "BEN; first compound 20 µM", "result": 0.652}, {"measurement": "relative viability", "setting": "LCLC-97TM1; first compound 0.2 µM", "result": 0.268}, {"measurement": "relative viability", "setting": "LCLC-97TM1; first compound 0.6325 µM", "result": 0.226}, {"measurement": "relative viability", "setting": "LCLC-97TM1; first compound 2 µM", "result": 0.212}, {"measurement": "relative viability", "setting": "LCLC-97TM1; first compound 6.325 µM", "result": 0.336}, {"measurement": "relative viability", "setting": "LCLC-97TM1; first compound 20 µM", "result": 0.166}, {"measurement": "relative viability", "setting": "PC-3 [JPC-3]; first compound 0.2 µM", "result": 1}, {"measurement": "relative viability", "setting": "PC-3 [JPC-3]; first compound 0.6325 µM", "result": 0.797}, {"measurement": "relative viability", "setting": "PC-3 [JPC-3]; first compound 2 µM", "result": 0.811}, {"measurement": "relative viability", "setting": "PC-3 [JPC-3]; first compound 6.325 µM", "result": 0.904}, {"measurement": "relative viability", "setting": "PC-3 [JPC-3]; first compound 20 µM", "result": 0.672}, {"measurement": "relative viability", "setting": "LC-2-ad; first compound 0.2 µM", "result": 0.968}, {"measurement": "relative viability", "setting": "LC-2-ad; first compound 0.6325 µM", "result": 0.806}, {"measurement": "relative viability", "setting": "LC-2-ad; first compound 2 µM", "result": 0.669}, {"measurement": "relative viability", "setting": "LC-2-ad; first compound 6.325 µM", "result": 0.932}, {"measurement": "relative viability", "setting": "LC-2-ad; first compound 20 µM", "result": 0.791}, {"measurement": "relative viability", "setting": "HCC-15; first compound 0.2 µM", "result": 1.17}, {"measurement": "relative viability", "setting": "HCC-15; first compound 0.6325 µM", "result": 1.22}, {"measurement": "relative viability", "setting": "HCC-15; first compound 2 µM", "result": 1.4}, {"measurement": "relative viability", "setting": "HCC-15; first compound 6.325 µM", "result": 1.26}, {"measurement": "relative viability", "setting": "HCC-15; first compound 20 µM", "result": 1.16}, {"measurement": "relative viability", "setting": "HCC-366; first compound 0.2 µM", "result": 0.3}, {"measurement": "relative viability", "setting": "HCC-366; first compound 0.6325 µM", "result": 0.186}, {"measurement": "relative viability", "setting": "HCC-366; first compound 2 µM", "result": 0.223}, {"measurement": "relative viability", "setting": "HCC-366; first compound 6.325 µM", "result": 0.281}, {"measurement": "relative viability", "setting": "HCC-366; first compound 20 µM", "result": 0.168}, {"measurement": "relative viability", "setting": "EKVX; first compound 0.2 µM", "result": 0.72}, {"measurement": "relative viability", "setting": "EKVX; first compound 2 µM", "result": 0.524}, {"measurement": "relative viability", "setting": "EKVX; first compound 6.325 µM", "result": 0.748}, {"measurement": "relative viability", "setting": "EKVX; first compound 20 µM", "result": 0.378}, {"measurement": "relative viability", "setting": "HCC-827; first compound 0.2 µM", "result": 0.206}, {"measurement": "relative viability", "setting": "HCC-827; first compound 0.6325 µM", "result": 0.224}, {"measurement": "relative viability", "setting": "HCC-827; first compound 2 µM", "result": 0.181}, {"measurement": "relative viability", "setting": "HCC-827; first compound 6.325 µM", "result": 0.211}, {"measurement": "relative viability", "setting": "HCC-827; first compound 20 µM", "result": 0.239}, {"measurement": "relative viability", "setting": "NCI-H1755; first compound 0.2 µM", "result": 0.414}, {"measurement": "relative viability", "setting": "NCI-H1755; first compound 0.6325 µM", "result": 0.4}, {"measurement": "relative viability", "setting": "NCI-H1755; first compound 2 µM", "result": 0.392}, {"measurement": "relative viability", "setting": "NCI-H1755; first compound 6.325 µM", "result": 0.557}, {"measurement": "relative viability", "setting": "NCI-H1755; first compound 20 µM", "result": 0.446}, {"measurement": "relative viability", "setting": "NCI-H3122; first compound 0.2 µM", "result": 0.854}, {"measurement": "relative viability", "setting": "NCI-H3122; first compound 0.6325 µM", "result": 0.911}, {"measurement": "relative viability", "setting": "NCI-H3122; first compound 2 µM", "result": 0.985}, {"measurement": "relative viability", "setting": "NCI-H3122; first compound 6.325 µM", "result": 0.95}, {"measurement": "relative viability", "setting": "NCI-H3122; first compound 20 µM", "result": 0.879}, {"measurement": "relative viability", "setting": "NCI-H1993; first compound 0.2 µM", "result": 0.476}, {"measurement": "relative viability", "setting": "NCI-H1993; first compound 2 µM", "result": 0.726}, {"measurement": "relative viability", "setting": "NCI-H1993; first compound 6.325 µM", "result": 0.783}, {"measurement": "relative viability", "setting": "NCI-H1993; first compound 20 µM", "result": 0.716}, {"measurement": "relative viability", "setting": "NCI-H2342; first compound 0.2 µM", "result": 0.566}, {"measurement": "relative viability", "setting": "NCI-H2342; first compound 0.6325 µM", "result": 0.371}, {"measurement": "relative viability", "setting": "NCI-H2342; first compound 6.325 µM", "result": 0.531}, {"measurement": "relative viability", "setting": "NCI-H2342; first compound 20 µM", "result": 0.41}, {"measurement": "relative viability", "setting": "NCI-H596; first compound 0.2 µM", "result": 1.24}, {"measurement": "relative viability", "setting": "NCI-H596; first compound 0.6325 µM", "result": 1}, {"measurement": "relative viability", "setting": "NCI-H596; first compound 2 µM", "result": 0.884}, {"measurement": "relative viability", "setting": "NCI-H596; first compound 6.325 µM", "result": 1.22}, {"measurement": "relative viability", "setting": "NCI-H596; first compound 20 µM", "result": 0.232}, {"measurement": "relative viability", "setting": "LU99A; first compound 0.2 µM", "result": 0.548}, {"measurement": "relative viability", "setting": "LU99A; first compound 0.6325 µM", "result": 0.167}, {"measurement": "relative viability", "setting": "LU99A; first compound 2 µM", "result": 0.443}, {"measurement": "relative viability", "setting": "LU99A; first compound 6.325 µM", "result": 0.361}, {"measurement": "relative viability", "setting": "LU99A; first compound 20 µM", "result": 0.0555}, {"measurement": "relative viability", "setting": "NCI-H1915; first compound 0.2 µM", "result": 0.745}, {"measurement": "relative viability", "setting": "NCI-H1915; first compound 0.6325 µM", "result": 0.507}, {"measurement": "relative viability", "setting": "NCI-H1915; first compound 2 µM", "result": 0.517}, {"measurement": "relative viability", "setting": "NCI-H1915; first compound 6.325 µM", "result": 0.82}, {"measurement": "relative viability", "setting": "NCI-H1915; first compound 20 µM", "result": 0.657}, {"measurement": "relative viability", "setting": "RERF-LC-KJ; first compound 0.2 µM", "result": 1.11}, {"measurement": "relative viability", "setting": "RERF-LC-KJ; first compound 0.6325 µM", "result": 0.875}, {"measurement": "relative viability", "setting": "RERF-LC-KJ; first compound 2 µM", "result": 0.928}, {"measurement": "relative viability", "setting": "RERF-LC-KJ; first compound 6.325 µM", "result": 1.04}, {"measurement": "relative viability", "setting": "RERF-LC-KJ; first compound 20 µM", "result": 0.978}, {"measurement": "relative viability", "setting": "NCI-H522; first compound 0.2 µM", "result": 0.788}, {"measurement": "relative viability", "setting": "NCI-H522; first compound 0.6325 µM", "result": 0.823}, {"measurement": "relative viability", "setting": "NCI-H522; first compound 2 µM", "result": 0.838}, {"measurement": "relative viability", "setting": "NCI-H522; first compound 6.325 µM", "result": 0.598}, {"measurement": "relative viability", "setting": "NCI-H522; first compound 20 µM", "result": 0.283}]}]}
